Measured values: US20210308089A1, “METHODS OF TREATING AND/OR PREVENTING VIRAL INFECTIONS AND/OR DISEASES CAUSED BY VIRUSES IN A SUBJECT IN NEED THEREOF” (priority 2020, published 2021)

Tested on: statin-treated hypertriglyceridemic patients with cardiovascular disease or at high risk for cardiovascular disease
Assay: REDUCE-IT: safety, treatment-emergent adverse events (incl. bleeding, atrial fibrillation/flutter, gastrointestinal)
[1] = REDUCE-IT safety population, 4 g/day
[2] = serious bleeding TEAE, % of N = 4089
[3] = serious bleeding TEAE, number (%) of N = 4089
[4] = serious bleeding TEAE, patients, N = 4089

## CC/C=C\C/C=C\C/C=C\C/C=C\C/C=C\CCCC(=O)OCC [icosapent ethyl, eicosapentaenoic acid ethyl ester]
% of N = 4089
  Serious TEAE: (30.6%)
  Serious TEAE Leading to Death: (2.3%)
  Serious TEAE Leading to Withdrawal of Study Drug: (2.2%)
  Subjects with at Least One TEAE: (81.8%)
  TEAE Leading to Withdrawal of Study Drug: (7.9%)
N = 4089, safety population
  Pneumonia, serious treatment-emergent adverse event: % of patients: 2.6%
  Pneumonia, serious treatment-emergent adverse event: number of patients: 105
[1]
  Anemia, adverse event rate: 4.7%
  Atrial fibrillation, adverse event rate: 5.3%
  Diarrhea, adverse event rate: 9%
  Gastrointestinal adverse events, rate: 33.0%
  Peripheral edema, adverse event rate: 6.5%
REDUCE-IT, 4 g/day
  Atrial fibrillation or flutter requiring hospitalization (prespecified adjudicated tertiary endpoint): 3.1%
  Fatal bleeding events: no fatal bleeding events
  Gastrointestinal bleeding (serious): 1.5%
  Serious central nervous system bleeding: 0.3%
  Tolerability: well tolerated
  Treatment-emergent serious adverse events for bleeding, rate: 2.7%
TEAE, system organ class, number (%) of N = 4089
  Gastrointestinal disorders: 1350 (33.0%)
TEAE, number (%) of N = 4089
  Anemia: 191 (4.7%)
  Angina pectoris: 200 (4.9%)
  Arthralgia: 313 (7.7%)
  Atrial fibrillation: 215 (5.3%)
  Back pain: 335 (8.2%)
  Bronchitis: 306 (7.5%)
  Cataract: 233 (5.7%)
  Chest pain: 273 (6.7%)
  Constipation: 221 (5.4%)
  Cough: 241 (5.9%)
  Diarrhea: 367 (9.0%)
  Dizziness: 235 (5.7%)
  Dyspnea: 254 (6.2%)
  Fatigue: 228 (5.6%)
  Gastroesophageal Reflux Disease: 124 (3.0%)
  Hypertension: 320 (7.8%)
  Influenza: 263 (6.4%)
  Nasopharyngitis: 314 (7.7%)
  Nausea: 190 (4.6%)
  Osteoarthritis: 241 (5.9%)
  Pain in extremity: 235 (5.7%)
  Peripheral edema: 267 (6.5%)
  Pneumonia: 263 (6.4%)
  Upper respiratory tract infection: 312 (7.6%)
  Urinary tract infection: 253 (6.2%)
Hospitalization for atrial fibrillation or atrial flutter, number (%) of N = 4089
  Positively Adjudicated Atrial Fibrillation/Flutter: 127 (3.1%)
Number of subjects, N = 4089
  Serious TEAE: 1252
  Serious TEAE Leading to Death: 94
  Serious TEAE Leading to Withdrawal of Study Drug: 88
  TEAE Leading to Withdrawal of Study Drug: 321
Number of subjects, Safety population N = 4089
  Subjects with at Least One TEAE: 3343
[2]
  Aortic Aneurysm Rupture: (0.0%)
  Brain Contusion: (0.0%)
  Catheter Site Hemorrhage: (0.0%)
  Central Nervous System Bleeding: (0.3%)
  Cerebral Hemorrhage: (0.0%)
  Cystitis Hemorrhagic: (0.0%)
  Diverticulitis Intestinal Hemorrhagic: (0.0%)
  Diverticulum Intestinal Hemorrhagic: (0.1%)
  Duodenal Ulcer Hemorrhage: (0.0%)
  Ecchymosis: (0.0%)
  Epistaxis: (0.2%)
  Esophageal Hemorrhage: (0.0%)
  Extravasation Blood: (0.0%)
  Gastric Hemorrhage: (0.0%)
  Gastric Ulcer Hemorrhage: (0.1%)
  Gastrointestinal Angiodysplasia Hemorrhagic: (0.0%)
  Gastrointestinal Bleeding: (1.5%)
  Gastrointestinal Hemorrhage: (0.6%)
  Genital Hemorrhage: (0.0%)
  Hemarthrosis: (0.0%)
  Hematemesis: (0.1%)
  Hematochezia: (0.0%)
  Hematoma: (0.0%)
  Hematuria: (0.2%)
  Hemoptysis: (0.0%)
  Hemorrhagic Anemia: (0.1%)
  Hemorrhagic Duodenitis: (0.0%)
  Hemorrhagic Transformation Stroke: (0.0%)
  Hemorrhoidal Hemorrhage: (0.1%)
  Hemothorax: (0.0%)
  Immune Thrombocytopenic Purpura: (0.0%)
  Intra-Abdominal Hemorrhage: (0.0%)
  Intracranial Hemorrhage: (0.0%)
  Large Intestinal Hemorrhage: (0.0%)
  Lower Gastrointestinal Hemorrhage: (0.1%)
  Mallory-Weiss Syndrome: (0.0%)
  Melaena: (0.1%)
  Menorrhagia: (0.0%)
  Mouth Hemorrhage: (0.0%)
  Other Bleeding: (1.0%)
  Pancreatitis Hemorrhagic: (0.0%)
  Patients with Bleeding-Related Disorders: (2.7%)
  Peptic Ulcer Hemorrhage: (0.0%)
  Pericardial Hemorrhage: (0.0%)
  Post Procedural Hematoma: (0.0%)
  Post Procedural Hematuria: (0.0%)
  Post Procedural Hemorrhage: (0.1%)
  Rectal Hemorrhage: (0.2%)
  Renal Hemorrhage: (0.0%)
  Retinal Hemorrhage: (0.0%)
  Retroperitoneal Hematoma: (0.0%)
  Retroperitoneal Hemorrhage: (0.0%)
  Shock Hemorrhagic: (0.0%)
  Subarachnoid Hemorrhage: (0.0%)
  Subdural Hematoma: (0.2%)
  Subdural Hemorrhage: (0.0%)
  Traumatic Hematoma: (0.0%)
  Traumatic Intracranial Hemorrhage: (0.0%)
  Ulcer Hemorrhage: (0.0%)
  Upper Gastrointestinal Hemorrhage: (0.1%)
  Urinary Bladder Hemorrhage: (0.0%)
[3]
  Bleeding related disorders: 111 (2.7%)
  Central Nervous System Bleeding: 14 (0.3%)
  Gastrointestinal Bleeding: 62 (1.5%)
  Other Bleeding: 41 (1.0%)
[4]
  Aortic Aneurysm Rupture: 1
  Brain Contusion: 0
  Catheter Site Hemorrhage: 0
  Central Nervous System Bleeding: 14
  Cerebral Hemorrhage: 0
  Cystitis Hemorrhagic: 2
  Diverticulitis Intestinal Hemorrhagic: 0
  Diverticulum Intestinal Hemorrhagic: 3
  Duodenal Ulcer Hemorrhage: 2
  Ecchymosis: 1
  Epistaxis: 7
  Esophageal Hemorrhage: 0
  Extravasation Blood: 1
  Gastric Hemorrhage: 1
  Gastric Ulcer Hemorrhage: 3
  Gastrointestinal Angiodysplasia Hemorrhagic: 1
  Gastrointestinal Bleeding: 62
  Gastrointestinal Hemorrhage: 26
  Genital Hemorrhage: 1
  Hemarthrosis: 0
  Hematemesis: 3
  Hematochezia: 1
  Hematoma: 1
  Hematuria: 8
  Hemoptysis: 1
  Hemorrhagic Anemia: 4
  Hemorrhagic Duodenitis: 0
  Hemorrhagic Transformation Stroke: 1
  Hemorrhoidal Hemorrhage: 3
  Hemothorax: 1
  Immune Thrombocytopenic Purpura: 0
  Intra-Abdominal Hemorrhage: 1
  Intracranial Hemorrhage: 0
  Large Intestinal Hemorrhage: 1
  Lower Gastrointestinal Hemorrhage: 5
  Mallory-Weiss Syndrome: 1
  Melaena: 3
  Menorrhagia: 1
  Mouth Hemorrhage: 0
  Other Bleeding: 41
  Pancreatitis Hemorrhagic: 1
  Patients with Bleeding-Related Disorders: 111
  Peptic Ulcer Hemorrhage: 1
  Pericardial Hemorrhage: 0
  Post Procedural Hematoma: 1
  Post Procedural Hematuria: 0
  Post Procedural Hemorrhage: 5
  Rectal Hemorrhage: 10
  Renal Hemorrhage: 0
  Retinal Hemorrhage: 1
  Retroperitoneal Hematoma: 0
  Retroperitoneal Hemorrhage: 1
  Shock Hemorrhagic: 2
  Subarachnoid Hemorrhage: 2
  Subdural Hematoma: 9
  Subdural Hemorrhage: 2
  Traumatic Hematoma: 2
  Traumatic Intracranial Hemorrhage: 0
  Ulcer Hemorrhage: 1
  Upper Gastrointestinal Hemorrhage: 3
  Urinary Bladder Hemorrhage: 1
